In general, Emax refers to the greatest response seen or fitted, relative to the assay's reference.

The values below come from article PMC12881670, “Investigation into ligand selectivity and bias at the formyl peptide receptor family” (The Journal of Pharmacology and Experimental Therapeutics, 2025).

Assay [1] addresses T1, Hs_FPR2 (Homo sapiens, UniProt P25090).
T1 construct: expressed in transfected cells
T1 sequence (P25090 1-351): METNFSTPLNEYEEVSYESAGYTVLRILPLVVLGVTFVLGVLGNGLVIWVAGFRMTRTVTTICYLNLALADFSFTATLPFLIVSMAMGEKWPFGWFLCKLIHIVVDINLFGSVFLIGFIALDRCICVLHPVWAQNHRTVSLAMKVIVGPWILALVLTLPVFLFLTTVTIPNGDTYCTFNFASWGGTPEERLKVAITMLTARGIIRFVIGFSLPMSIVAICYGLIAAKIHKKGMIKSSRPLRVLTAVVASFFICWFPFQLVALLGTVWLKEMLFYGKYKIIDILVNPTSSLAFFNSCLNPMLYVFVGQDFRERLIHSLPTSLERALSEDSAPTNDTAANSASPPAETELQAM
Put plainly: ERK1/2 phosphorylation by Western blotting. The format is cell-based. The protocol: (§1) ERK phosphorylation was detected by Western blotting as previously described.[30] Briefly, HEK293 cells stably expressing FLAG-tagged FPRs were plated into 12-well culture plates until 90% confluent. On the day of the experiment, culture media was replaced with serum-free Dulbecco’s modified Eagle’s medium and incubated for 2 hours before stimulation with the indicated compounds. After 7 minutes, the media was removed and stimulation terminated by the addition of 100 μl sample buffer (0.5% SDS, Tris (pH 6.8), glycerol, at >90 °C).
(§2) All data were analyzed using GraphPad Prism using the nonlinear regression log(agonist) versus response (3 parameters) function for all assays, except binding, which was analyzed using the One site-FitlogIC50 function. Bias calculations were carried out following IUPHAR guidelines as described,[27]^,[37] and data were presented as the Δ Activity ratio (Log[EmaxB/EC50B])-(Log[EmaxA/EC50A]).
Background: A western blot detects proteins with antibodies after separation by electrophoresis.

The target of assay [2] is T2, Mm_Fpr2 (Mus musculus, UniProt O88536).
T2 construct: expressed in transfected cells
T2 sequence (O88536 1-351): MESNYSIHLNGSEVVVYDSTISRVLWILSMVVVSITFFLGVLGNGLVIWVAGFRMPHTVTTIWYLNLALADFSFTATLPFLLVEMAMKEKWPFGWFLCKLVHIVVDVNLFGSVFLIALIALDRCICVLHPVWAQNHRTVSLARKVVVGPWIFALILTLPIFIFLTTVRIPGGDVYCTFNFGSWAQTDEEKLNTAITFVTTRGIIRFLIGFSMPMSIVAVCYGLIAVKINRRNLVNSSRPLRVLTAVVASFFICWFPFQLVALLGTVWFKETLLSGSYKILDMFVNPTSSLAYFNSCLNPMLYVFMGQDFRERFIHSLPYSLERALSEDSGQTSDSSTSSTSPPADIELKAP
Put plainly: ERK1/2 phosphorylation by Western blotting. The format is cell-based. As for the experimental part: as §1, §2

For assay [3], the target named is T1, Hs_FPR2. The assay is described as follows: BRET receptor-RLuc8 interaction with Venus-mGsi. The format is cell-based. The protocol: (§3) BRET1 assays to measure FPR interaction with Venus-mGsi and Arrestin 3-yellow fluorescent protein (YFP) were performed as previously described.[31]^,[32] Briefly, all FPRs C-terminally fused to Renilla Luciferase (donor, RLuc8) were transiently transfected along with either Venus-mGsi or YFP-Arrestin 3 (acceptor) at a ratio of 1:4. 24 hours post transfection, cells were replated into white-walled, 96-well plates and cultured for a further 24–48 hours. On the day of experimentation, growth media was aspirated and replaced with 80 μl Hanks Buffered Saline Solution and equilibrated for 30 minutes. Coelenterazine h was added to each well to a final concentration of 5 μM for 5 minutes before the addition of each compound, and the plate was incubated for a further 10 minutes at 37 °C before being read on a ClarioStar Plus, with luminescence measured at 480/20 nm (donor) and 530/20 (acceptor). The BRET ratio (acceptor/donor) was determined, and the background (untreated) subtracted to give the N-BRET value.
as §2

The target in assay [4] is T2, Mm_Fpr2. Put plainly: BRET receptor-RLuc8 interaction with Venus-mGsi. The format is cell-based. The protocol: as §3, §2
In assay [5] the target is T3, Mm_Fpr1 (Mus musculus, UniProt P33766).
T3 construct: expressed in transfected cells
T3 sequence (P33766 1-364): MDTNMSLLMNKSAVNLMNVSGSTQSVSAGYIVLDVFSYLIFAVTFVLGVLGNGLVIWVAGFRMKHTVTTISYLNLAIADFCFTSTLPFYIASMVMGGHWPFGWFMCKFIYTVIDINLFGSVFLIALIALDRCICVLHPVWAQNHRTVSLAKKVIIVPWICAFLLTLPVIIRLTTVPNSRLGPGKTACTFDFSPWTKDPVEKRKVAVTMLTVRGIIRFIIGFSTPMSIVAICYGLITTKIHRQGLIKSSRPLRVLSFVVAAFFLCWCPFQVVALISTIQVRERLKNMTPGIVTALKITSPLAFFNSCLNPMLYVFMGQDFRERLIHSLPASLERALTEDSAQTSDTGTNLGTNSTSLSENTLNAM
The assay is described as follows: BRET receptor-RLuc8 interaction with Venus-mGsi. The format is cell-based. As for the experimental part: as §3, §2

For assay [6], the target named is T2, Mm_Fpr2. The assay is described as follows: Internalization of FLAG-tagged receptors by flow cytometry. The arrangement: Emax: dose or concentration left out as unconfirmed. The format is cell-based. As for the experimental part: (§4) Internalization of FPRs was measured by flow cytometry.[30] Briefly, cells were incubated with Alexa Fluor 657 conjugated M1 antiflag antibody (Sigma-Aldrich Cat# F3040, RRID:AB_439712) for 30 minutes at 37 °C to label surface receptors. Cells were then incubated with the indicated concentration of ligand before washing in PBS/0.04% EDTA to remove any remaining surface antibody. Remaining fluorescence was then measured using flow cytometry on either a BD FACScalibur or Attune, recording 5000 gated events. […] As a control, some samples were left untreated, and “strip only” was measured as a readout of constitutive endocytosis, and this value was subtracted from the data. Vehicle control (0.1% DMSO) had no effect on internalization of receptors.
as §2
A general note: Flow cytometry measures light scatter and fluorescence of single cells or particles in a stream.

Assay [7] addresses T3, Mm_Fpr1. Described as above. The class given is cell-based. Further details: Emax: dose or concentration left out as unconfirmed. The protocol: as §4, §2
Assay [8] deals with T1, Hs_FPR2. Put plainly: BRET receptor-RLuc8 interaction with Arrestin 3-YFP. The format is cell-based. The protocol: as §3, §2
In general terms: BRET reads energy transfer from a luciferase to a nearby fluorophore.

In assay [9] the target is T2, Mm_Fpr2. The assay is described as above. The format is cell-based. The protocol: as §3, §2
Assay [10] deals with T1, Hs_FPR2. The assay is described as follows: Internalization of FLAG-tagged receptors by flow cytometry. The class given is cell-based. The arrangement: Emax: dose or concentration left out as unconfirmed. The protocol: (§5) Internalization of FPRs was measured by flow cytometry.[30] Briefly, cells were incubated with Alexa Fluor 657 conjugated M1 antiflag antibody (Sigma-Aldrich Cat# F3040, RRID:AB_439712) for 30 minutes at 37 °C to label surface receptors. Cells were then incubated with the indicated concentration of ligand before washing in PBS/0.04% EDTA to remove any remaining surface antibody. Remaining fluorescence was then measured using flow cytometry on either a BD FACScalibur or Attune, recording 5000 gated events. […] As a control, some samples were left untreated, and “strip only” was measured as a readout of constitutive endocytosis, and this value was subtracted from the data.
as §2

A further assay concerns the target T4, Hs_FPR1 (Homo sapiens, UniProt P21462).
T4 construct: expressed in transfected cells
T4 sequence (P21462 1-350): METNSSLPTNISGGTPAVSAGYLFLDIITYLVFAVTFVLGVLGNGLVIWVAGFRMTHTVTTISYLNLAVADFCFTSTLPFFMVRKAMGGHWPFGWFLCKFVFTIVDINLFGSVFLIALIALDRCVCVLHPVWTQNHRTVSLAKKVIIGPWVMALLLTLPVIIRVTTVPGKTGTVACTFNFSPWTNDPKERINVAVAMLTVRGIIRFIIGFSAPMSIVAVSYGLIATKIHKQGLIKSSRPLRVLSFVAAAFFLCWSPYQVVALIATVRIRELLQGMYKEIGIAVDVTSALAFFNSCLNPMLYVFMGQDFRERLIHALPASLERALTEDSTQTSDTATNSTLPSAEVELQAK
The description is as above. The arrangement: Emax: dose or concentration left out as unconfirmed. The class given is cell-based. The conditions noted are these: Hs_FPR1, 30 min, relative to 1 μM WKYMVm. The protocol:
as §5, §2

The subject of assay [11] is formyl peptide receptor family (Hs_FPR1, Hs_FPR2, Mm_Fpr1, Mm_Fpr2). The assay is described as follows: Summary of main findings: receptor subtype selectivity and ligand bias across all readouts. The arrangement: species or system human and mouse. An excerpt:
To determine ligand bias, a reference ligand is required, that is, “balanced” for the pathways tested.[37] […] We then used measurements of the activity ratio (Log (Emax/EC50)) for each receptor, ligand, and pathway in an attempt to observe any ligand bias (Fig. 6).

Where a SMILES comes first, the peptide text is derived from it. The star is where a group is joined. For = O=C*

Consider `CC[C@H](C)[C@H](NC(=O)[C@H](CC(C)C)NC(=O)[C@H](CCCCN)NC(=O)[C@H](CCSC)NC(=O)[C@H](CC(C)C)NC(=O)[C@@H]1CCCN1C(=O)[C@H](CC(N)=O)NC(=O)[C@@H](NC(=O)[C@H](CCCCN)NC(=O)[C@H](CCCNC(=N)N)NC(=O)[C@H](CCSC)NC(=O)[C@@H]1CCCN1C(=O)[C@@H](NC(=O)[C@H](CCSC)NC=O)[C@@H](C)O)[C@@H](C)CC)C(=O)N[C@@H](CC(N)=O)C(=O)O` [MCT-2, Formyl-MTPMRKINPLMKLIN] (For-MTPMRKINPLMKLIN-OH), for which the Emax at Hs_FPR2 [1] was 93.9%; at Mm_Fpr2 [2], 169%; on Hs_FPR2 [3], 44.4%; on Mm_Fpr2 [4] it was 25%; at Mm_Fpr1 [5] it was -8.19%; at Mm_Fpr2 [6], 43.9%. Besides, the Emax on Mm_Fpr1 [7] came out at 7.39%; on Hs_FPR2 [8], 51.8%; at Mm_Fpr2 [9] it was 12.1%; at Hs_FPR2 [10] it was 63.3%. Further, the “agonist-induced internalization (words)” value at Mm_Fpr1 [7] (Mm_Fpr1, 30 min, relative to 1 μM WKYMVm) is “failed to show appreciable internalization”; on Hs_FPR1, “failed to show appreciable internalization”. Besides, the Bias result in [11] (summary grade of ligand bias relative to WKYMVm, key not given) is listed as “No”. The Notes entry in assay [11] (summary of main findings, in words) is given as “Partial agonist”.
